Key:
[1] = system: neural precursor cells of the DG; test: BrdU-positive cells in the dentate gyrus of P15 mice; assay type: in vivo, mouse; conditions: for number of BrdU-positive cells in the DG: Ts65Dn pups
Method: In a pilot study we tested the effects of different doses of 7,8-DHF on the proliferation rate in the SGZ of Ts65Dn mice. Mice received a daily subcutaneous injection of 7,8-DHF (2.5, 5.0, or 10.0 mg/kg in PBS with 1-2% DMSO) from postnatal day 3 (P3) to P15. […] Therefore, this study (Experiment 1 and Experiment 2) was carried out using a 5.0 mg/kg dose.
Euploid and Ts65Dn mice received a daily subcutaneous injection (at 9-10 am) of 7,8-DHF (5.0 mg/kg in vehicle: PBS with 1% DMSO) or vehicle from postnatal day 3 (P3) to postnatal day 15. This timing was chosen because it corresponds to that previously used to test the effects of fluoxetine and other pharmacotherapies in the neonate Ts65Dn mouse (Bianchi et al., 2010b; Giacomini et al., 2015; Stagni et al., 2016). Mice that received 7,8-DHF will be called “treated mice” (treated euploid mice: n=25; treated Ts65Dn mice: n=15). Mice that received the vehicle will be called “untreated mice” (untreated euploid mice: n=35; untreated Ts65Dn mice: n=21). […] The brains were excised and cut along the midline. The left hemisphere of a group of mice was fixed by immersion in PFA 4% and frozen, and the left hemisphere of another group of mice was used for Golgi staining. The right hemispheres of all mice was kept at −80° C. and used for western blotting.
One out of six free-floating sections (n=15-18 sections) from the hippocampal formation of P15 mice was incubated with rat anti-BrdU antibody.
BrdU-positive cells in the DG of P15 mice were detected using a fluorescence microscope (Eclipse; objective: ×40, 0.75 NA; final magnification: ×400). Quantification of BrdU-labeled nuclei was conducted in every 6th section using a modified unbiased stereology protocol that has previously been reported as successfully quantifying BrdU labeling (Malberg et al., 2000; Kempermann and Gage, 2002; Tozuka et al., 2005). All BrdU labeled cells located in the granule cell and subgranular layers were counted in their entire z axis (1 μm steps) in each section. To avoid oversampling errors, nuclei intersecting the uppermost focal plane were excluded. The total number of BrdU labeled cells per animal was determined and multiplied by six to obtain the total estimated number of cells per DG.

[2] = Liu et al., 2010 and 2013; cited from earlier work
[3] = Prenatal treatment: abortion rate, pups per litter, mortality of progeny
Method: Ts65Dn females (n=4) were bred C57BL/6JEi×C3SnHeSnJ (B6EiC3) F1 males (n=4). Conception was determined by examining the vaginal plug. Pregnant females received a daily subcutaneous injection of either 7,8-DHF (Sigma-Aldrich) in PBS with 2% DMSO (dose: 5 mg/kg) or vehicle from the embryonic (E) day 10 (E10) to the day of delivery (E20/21). […] On postnatal day 2 (P2) the progeny of 7,8-DHF-treated and vehicle-treated females received an intraperitoneal injection (150 μg/g body weight) of BrdU (Sigma) in 0.9% NaCl solution and were killed after 2 h (on P2; 4-8 animals for each group). Vehicle-treated females and their progeny will be called hereafter untreated mice. The body weight of P2 mice was recorded prior to sacrifice. After sacrifice, brain was excised and weighed.
The Ts65Dn strain is characterized by a high mortality rate during gestation (Roper et al., 2006).

[4] = system: NPCs from the SVZ of Ts65Dn mice; test: Proliferation of NPC cultures (Cell Titer-Glo); assay type: cell-based, mouse; conditions: 96 h
Method: Cells were isolated from the subventricular zone (SVZ) of the lateral ventricle and the subgranular zone (SGZ) of the hippocampal dentate gyrus (DG) of newborn (P1-P2) euploid and Ts65Dn mice. Briefly, brains were removed, the SVZ and SGZ regions were isolated and individually collected in ice-cold PIPES buffer pH 7.4. After centrifugation, tissue was digested for 10 min at 37° C. using Trypsin/EDTA 0.25% (Life Technologies) aided by gentle mechanical dissociation. Cell suspension from each individual mouse was plated onto 25 cm^2 cell-culture flask (Thermo Fisher Scientific) and cultured as floating neurospheres in medium containing basic fibroblast growth factor (bFGF, 10 ng/ml; Peprotech) and epidermal growth factor (EGF, 20 ng/ml; Peprotech) using an established protocol (Meneghini et al., 2014). […] Cell proliferation was quantified as relative luminescence units (RLU) values using Cell Titer-Glo viability assay reagent (Promega) on aVictor^3-V plate reader (PerkinElmer). […] In each experiment, five fields/well (corresponding to about 150-200 cells/well) were counted with a 60× objective by a Leica DMIRB inverted fluorescence microscope. Immunoreactive cells were counted and their percentage over total viable cells was calculated. […]

Structure (SMILES): O=c1cc(-c2ccccc2)oc2c(O)c(O)ccc12 [7,8-DHF, 7,8-dihydroxyflavone]
- number of BrdU-positive cells in the DG ([1]; 2.5 mg/kg P3-P15, vs vehicle): no effect
- number of BrdU-positive cells in the DG ([1]; 5.0 mg/kg P3-P15, vs vehicle): increased the number of BrdU-positive cells
- number of BrdU-positive cells in the DG ([1]; 10.0 mg/kg P3-P15, vs vehicle): increased the number of BrdU-positive cells
- number of NPCs (BrdU-positive cells) in the DG ([1]; euploid mice, 5.0 mg/kg P3-P15): no effect on the number of NPCs
- optimum dose for proliferation rate in the SGZ ([1]; pilot study, Ts65Dn mice, 2.5, 5.0 or 10.0 mg/kg s.c. P3-P15): 5.0 mg/kg
- total number of BrdU-positive (proliferating) cells per DG ([1]; treated Ts65Dn mice, 5.0 mg/kg P3-P15, mean±SE, untreated Ts65Dn 7166±337, untreated euploid 10,281±111): 8963±449
- blood-brain barrier penetration [2]: penetrates the blood-brain barrier
- mean number of pups per litter ([3]; female, Ts65Dn, mouse, in vivo): 5.33±2.04
- spontaneous abortion ([3]; mouse, in vivo): none of untreated and treated females underwent spontaneous abortion
- mortality rate of the progeny ([3]; treated females, mean±ES, vehicle 0.00±0.00, p=0.219): 0.66±0.81
- proliferation rate of trisomic NPCs ([4]; highest concentration 10.0 μM): reduced proliferation
- proliferation rate of trisomic NPCs ([4]; tested concentrations 0.3-10.0 μM, vs vehicle): none of the tested concentrations was able to increase the proliferation rate

From patent US10945989B2, “Perinatal treatment with a flavonoid agonist of the TrkB receptor for BDNF rescues neurogenesis and behavior in the Ts65Dn mouse model of DS” (ALMA MATER STUDIORUM—Universita' di Bologna, priority 2017, dated 2021)
